Experimental data taken from ChEMBL document CHEMBL4229492, “Design, Synthesis, and Biological Evaluation of Novel 7-[(3 aS,7 aS)-3 a-Aminohexahydropyrano[3,4- c]pyrrol-2(3 H)-yl]-8-methoxyquinolines with Potent Antibacterial Activity against Respiratory Pathogens” (J Med Chem, 2018).
Converted amounts (≈) assume the structure as drawn. The source made the active and inactive calls. The calls are words filed in the database; no cut-off is given here.

Tests used:
Streptococcus pneumoniae [1] = assay: In vivo antibacterial activity against quinolone-sensitive and penicillin-resistant Streptococcus pneumoniae 033806 infected in CBA/JNCrj mouse assessed as reduction in bacterial count at 40 to 80 mg/kg, sc administered twice per day starting from 1 day after infection and measured on day after final dose; type: functional, organism-based
Staphylococcus aureus [2] = assay: Antibacterial activity against Staphylococcus aureus SMITH after 18 hrs by two-fold microbroth dilution method; type: functional
Streptococcus pneumoniae [3] = assay: Antibacterial activity against penicillin-susceptible Streptococcus pneumoniae J24 after 18 hrs by two-fold microbroth dilution method; type: functional; conditions: J24, 18 h
Streptococcus pneumoniae [4] = assay: Antibacterial activity against penicillin-susceptible Streptococcus pneumoniae J41 after 18 hrs by two-fold microbroth dilution method; type: functional; conditions: J41, 18 h
Streptococcus pyogenes = assay: Antibacterial activity against Streptococcus pyogenes ATCC 12344 after 18 hrs by two-fold microbroth dilution method; type: functional; conditions: ATCC 12344, 18 h
Enterococcus faecalis = assay: Antibacterial activity against Enterococcus faecalis ATCC 19433 after 18 hrs by two-fold microbroth dilution method; type: functional; conditions: ATCC 19433, 18 h
Bacillus spizizenii = assay: Antibacterial activity against Bacillus subtilis ATCC 6633 after 18 hrs by two-fold microbroth dilution method; type: functional; conditions: ATCC 6633, 18 h
Escherichia coli [5] = assay: Antibacterial activity against Escherichia coli NIHJ after 18 hrs by two-fold microbroth dilution method; type: functional
Klebsiella pneumoniae = assay: Antibacterial activity against Klebsiella pneumoniae TYPE 1 after 18 hrs by two-fold microbroth dilution method; type: functional; conditions: TYPE 1, 18 h
Haemophilus influenzae = assay: Antibacterial activity against Haemophilus influenzae ATCC 49247 after 18 hrs by two-fold microbroth dilution method; type: functional; conditions: ATCC 49247, 18 h
Moraxella catarrhalis = assay: Antibacterial activity against Moraxella catarrhalis ATCC 25238 after 18 hrs by two-fold microbroth dilution method; type: functional; conditions: ATCC 25238, 18 h
Pseudomonas aeruginosa = assay: Antibacterial activity against Pseudomonas aeruginosa PAO1 after 18 hrs by two-fold microbroth dilution method; type: functional; conditions: PAO1, 18 h
Staphylococcus aureus [6] = assay: Antibacterial activity against levofloxacin and methicillin-resistant Staphylococcus aureus 870307 after 18 hrs by two-fold microbroth dilution method; type: functional; conditions: Staphylococcus aureus, 870307, 18 h
Staphylococcus aureus [7] = assay: Antibacterial activity against levofloxacin and methicillin-resistant Staphylococcus aureus 890325-1 after 18 hrs by two-fold microbroth dilution method; type: functional; conditions: 890325-1, 18 h
Escherichia coli [8] = assay: Antibacterial activity against quinolone-resistant Escherichia coli DNS5101 after 18 hrs by two-fold microbroth dilution method; type: functional; conditions: DNS5101, 18 h
Escherichia coli [9] = assay: Antibacterial activity against Escherichia coli 5-037042'98 harboring gyrase A Asp87Gly mutation after 18 hrs by two-fold microbroth dilution method; type: functional; conditions: 5-037042'98, 18 h
hERG (KCNH2) [10] = biological target: T1, hERG (KCNH2) (Homo sapiens, UniProt Q12809); assay: Inhibition of human ERG expressed in HEK293 cells at 30 uM; type: cell-based; conditions: HEK293 cells that express human ERG
T1 sequence (Q12809 whole entry): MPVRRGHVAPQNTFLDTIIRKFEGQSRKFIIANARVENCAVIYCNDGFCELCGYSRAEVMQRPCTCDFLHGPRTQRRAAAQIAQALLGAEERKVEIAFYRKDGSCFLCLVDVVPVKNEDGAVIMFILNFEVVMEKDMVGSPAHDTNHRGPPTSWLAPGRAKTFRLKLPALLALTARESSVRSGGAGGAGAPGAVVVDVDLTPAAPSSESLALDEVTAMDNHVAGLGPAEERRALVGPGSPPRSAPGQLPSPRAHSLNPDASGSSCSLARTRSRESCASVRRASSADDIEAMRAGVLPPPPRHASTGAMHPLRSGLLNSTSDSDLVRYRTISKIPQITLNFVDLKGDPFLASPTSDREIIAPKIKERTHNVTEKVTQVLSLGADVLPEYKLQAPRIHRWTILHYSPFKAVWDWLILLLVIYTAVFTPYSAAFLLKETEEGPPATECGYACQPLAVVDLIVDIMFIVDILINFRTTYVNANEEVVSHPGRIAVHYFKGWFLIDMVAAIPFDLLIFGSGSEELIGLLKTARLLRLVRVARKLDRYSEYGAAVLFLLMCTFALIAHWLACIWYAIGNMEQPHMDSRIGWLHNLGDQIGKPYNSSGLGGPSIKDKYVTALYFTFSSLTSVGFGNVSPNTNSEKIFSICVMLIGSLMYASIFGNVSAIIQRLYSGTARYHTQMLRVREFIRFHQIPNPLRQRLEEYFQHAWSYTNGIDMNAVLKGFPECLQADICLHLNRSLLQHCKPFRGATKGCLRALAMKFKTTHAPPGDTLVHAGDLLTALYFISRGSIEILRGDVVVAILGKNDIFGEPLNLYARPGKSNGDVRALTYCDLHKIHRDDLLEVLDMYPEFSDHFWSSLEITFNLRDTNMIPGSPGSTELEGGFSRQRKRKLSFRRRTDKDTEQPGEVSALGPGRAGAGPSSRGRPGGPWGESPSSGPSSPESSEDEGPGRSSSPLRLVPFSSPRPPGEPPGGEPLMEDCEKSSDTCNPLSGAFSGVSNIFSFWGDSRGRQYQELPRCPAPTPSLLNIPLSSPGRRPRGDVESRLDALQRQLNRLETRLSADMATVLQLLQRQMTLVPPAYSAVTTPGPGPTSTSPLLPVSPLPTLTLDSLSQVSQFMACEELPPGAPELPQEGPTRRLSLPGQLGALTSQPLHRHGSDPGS

hERG (KCNH2) [11] = biological target: T1, hERG (KCNH2); assay: Inhibition of human ERG expressed in HEK293 cells at 100 uM; type: cell-based; conditions: HEK293 cells that express human ERG
[12] = Metabolic stability in human microsomes at 1 uM assessed as compound remaining after 30 mins; type: ADME, Microsome; conditions: read-out: Stability
Albumin = Albumin (Homo sapiens, UniProt P02768); assay: Binding affinity to human serum albumin after 60 mins at 37 degC by ultrafiltration-based LC-MS analysis; type: ADME; conditions: read-out: PB (converted)
Sequence of Albumin (P02768 whole entry): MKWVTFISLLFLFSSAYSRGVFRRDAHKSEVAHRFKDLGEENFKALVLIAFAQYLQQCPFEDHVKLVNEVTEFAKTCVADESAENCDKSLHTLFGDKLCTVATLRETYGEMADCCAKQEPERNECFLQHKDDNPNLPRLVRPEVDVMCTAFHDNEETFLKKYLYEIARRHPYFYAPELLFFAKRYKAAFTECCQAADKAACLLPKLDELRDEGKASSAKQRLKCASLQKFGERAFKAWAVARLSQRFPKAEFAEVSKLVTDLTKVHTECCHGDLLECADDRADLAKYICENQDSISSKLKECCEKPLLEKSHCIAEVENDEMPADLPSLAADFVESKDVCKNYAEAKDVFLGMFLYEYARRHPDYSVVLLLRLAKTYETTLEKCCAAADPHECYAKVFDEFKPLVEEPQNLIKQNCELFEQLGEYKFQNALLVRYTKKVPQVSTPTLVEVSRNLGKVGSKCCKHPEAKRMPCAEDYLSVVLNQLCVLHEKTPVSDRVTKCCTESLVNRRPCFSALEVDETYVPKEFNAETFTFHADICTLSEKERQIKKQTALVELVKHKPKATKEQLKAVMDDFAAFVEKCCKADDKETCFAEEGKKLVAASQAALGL

[13] = Cmax in cynomolgus monkey serum at 5 mg/kg, po; type: ADME, organism-based, Macaca fascicularis; design: dose 5 mg/kg, route oral
[14] = AUC (0 to 24 hrs) in cynomolgus monkey serum at 5 mg/kg, po; type: ADME, organism-based, Macaca fascicularis; design: time < 24 hr, dose 5 mg/kg, route oral
[15] = Half life in cynomolgus monkey serum at 5 mg/kg, po; type: ADME, organism-based, Macaca fascicularis
[16] = Drug recovery in cynomolgus monkey urine at 5 mg/kg, po after 24 hrs; type: ADME, organism-based, Macaca fascicularis; conditions: read-out: Drug recovery
[17] = Oral bioavailability in cynomolgus monkey at 5 mg/kg; type: ADME, organism-based, Macaca fascicularis; conditions: in vivo
Staphylococcus aureus [18] = assay: Antibacterial activity against methicillin-resistant Staphylococcus aureus after 18 hrs by two-fold microbroth dilution method; type: functional
[19] = Cmax in Crj:CD rat at 5 mg/kg, po; type: ADME, organism-based; design: dose 5 mg/kg, route oral; conditions: in vivo
[20] = AUC (0 to 8 hrs) in Crj:CD rat at 5 mg/kg, po; type: ADME, organism-based; design: time < 8 hr, dose 5 mg/kg, route oral; conditions: in vivo
[21] = AUC (0 to 8 hrs) in cynomolgus monkey serum at 5 mg/kg, iv; type: ADME, organism-based, Macaca fascicularis; design: dose 5 mg/kg, time < 8 hr, route intravenous
Mus musculus [22] = assay: Toxicity in Slc:ddY mouse assessed as induction of convulsion at 5 ug/5 uL/mouse administered intracisternally and measured over 30 mins post dose; type: organism-based; conditions: in vivo, other, 0.5 h
Mus musculus [23] = assay: Toxicity in Slc:ddY mouse assessed as induction of convulsion at 5 ug/5 uL/mouse administered intracisternally 30 mins after 400 mg/kg, po BPAA dosing and measured over 30 mins post dose; type: organism-based; conditions: in vivo, 0.5 h
Mus musculus [24] = assay: Toxicity in Slc:ddY mouse assessed as induction of convulsion at 15 ug/5 uL/mouse administered intracisternally 30 mins after 400 mg/kg, po BPAA dosing and measured over 30 mins post dose; type: organism-based; conditions: in vivo, 0.5 h
Mus musculus [25] = assay: Toxicity in Slc:ddY mouse assessed as induction of convulsion at 50 ug/5 uL/mouse administered intracisternally 30 mins after 400 mg/kg, po BPAA dosing and measured over 30 mins post dose; type: organism-based; conditions: in vivo, 0.5 h
Mus musculus [26] = assay: Toxicity in Slc:ddY mouse assessed as induction of mortality at 5 ug/5 uL/mouse administered intracisternally and measured over 30 mins post dose; type: organism-based; conditions: in vivo, other, 0.5 h
Mus musculus [27] = assay: Toxicity in Slc:ddY mouse assessed as induction of mortality at 5 ug/5 uL/mouse administered intracisternally 30 mins after 400 mg/kg, po BPAA dosing and measured over 30 mins post dose; type: organism-based; conditions: in vivo, 0.5 h
Mus musculus [28] = assay: Toxicity in Slc:ddY mouse assessed as induction of mortality at 15 ug/5 uL/mouse administered intracisternally 30 mins after 400 mg/kg, po BPAA dosing and measured over 30 mins post dose; type: organism-based; conditions: in vivo, 0.5 h
Mus musculus [29] = assay: Toxicity in Slc:ddY mouse assessed as induction of mortality at 50 ug/5 uL/mouse administered intracisternally 30 mins after 400 mg/kg, po BPAA dosing and measured over 30 mins post dose; type: organism-based; conditions: in vivo, 0.5 h

With `COc1c(N2C[C@@H]3CCCN[C@@H]3C2)c(F)cc2c(=O)c(C(=O)O)cn(C3CC3)c12` the Activity (Streptococcus pneumoniae [1]) was “Active”.
`COc1c(N2C[C@H]3CCOC[C@@]3(N)C2)c(F)cc2c(=O)c(C(=O)O)cn([C@@H]3C[C@@H]3F)c12` showed an MIC (Staphylococcus aureus [2]) of 0.012 mg/L (≈ 0.0276 µM), an MIC (Streptococcus pneumoniae [3]) of 0.2 mg/L (≈ 0.459 µM) and an MIC (Streptococcus pneumoniae [4]) of 0.2 mg/L (≈ 0.459 µM). For the same compound, the MIC (Streptococcus pyogenes) was 0.2 mg/L (≈ 0.459 µM), the MIC (Enterococcus faecalis) was 0.39 mg/L (≈ 0.896 µM) and the MIC (Bacillus spizizenii) was 0.025 mg/L (≈ 0.0574 µM). It also gave an MIC (Escherichia coli [5]) of 0.05 mg/L (≈ 0.115 µM), an MIC (Klebsiella pneumoniae) of 0.2 mg/L (≈ 0.459 µM) and an MIC (Haemophilus influenzae) of 0.012 mg/L (≈ 0.0276 µM). The MIC (Moraxella catarrhalis) was 0.1 mg/L (≈ 0.23 µM), the MIC (Pseudomonas aeruginosa) was 3.13 mg/L (≈ 7.19 µM) and the MIC (Staphylococcus aureus [6]) was 0.78 mg/L (≈ 1.79 µM). It also gave an MIC (Staphylococcus aureus [7]) of 0.78 mg/L (≈ 1.79 µM), an MIC (Escherichia coli [8]) of over 6.25 mg/L and an MIC (Escherichia coli [9]) of 0.39 mg/L (≈ 0.896 µM). For the same compound, the inhibition at 30 µM (hERG (KCNH2) [10]) was -6.4%, the inhibition at 100 µM (hERG (KCNH2) [11]) was -7.5% and the remaining at 0.5 h, 1 µM [12] was 100%. The fraction unbound at 1 h (Albumin) was 0.88.
`COc1c(N2C[C@@H]3CCOC[C@@]3(N)C2)c(F)cc2c(=O)c(C(=O)O)cn([C@@H]3C[C@@H]3F)c12.CS(=O)(=O)O` gave a Cmax [13] of 3.7 µg/mL, an AUC(0-t) at 24 h [14] of 19.8 µg·h/mL and a half-life [15] of 4.6 h. For the same compound, the dose excreted at 24 h [16] was 64.1% and the bioavailability [17] was 75%.
`C[C@H]1NCc2cc(-c3ccc4c(=O)c(C(=O)O)cn(C5CC5)c4c3OC(F)F)ccc21` [GARENOXACIN] showed an MIC (Staphylococcus aureus [18]) of 0.008 to 8 mg/L, an MIC50 (Staphylococcus aureus [18]; Staphylococcus aureus, 18 h) of 0.03 mg/L (≈ 0.0704 µM) and an MIC90 (Staphylococcus aureus [18]; Staphylococcus aureus, 18 h) of 1 mg/L (≈ 2.35 µM).
For `N[C@@]12CCCC[C@H]1CNC2`, the MIC (Staphylococcus aureus [2]) was under 0.003 mg/L, the MIC (Streptococcus pneumoniae [3]) was 0.025 mg/L (≈ 0.178 µM) and the MIC (Streptococcus pneumoniae [4]) was 0.025 mg/L (≈ 0.178 µM). The MIC (Streptococcus pyogenes) was 0.025 mg/L (≈ 0.178 µM), the MIC (Enterococcus faecalis) was 0.1 mg/L (≈ 0.713 µM) and the MIC (Bacillus spizizenii) was 0.006 mg/L (≈ 0.0428 µM). For the same compound, the MIC (Escherichia coli [5]) was 0.006 mg/L (≈ 0.0428 µM), the MIC (Klebsiella pneumoniae) was 0.05 mg/L (≈ 0.357 µM) and the MIC (Haemophilus influenzae) was 0.012 mg/L (≈ 0.0856 µM). It also gave an MIC (Moraxella catarrhalis) of 0.025 mg/L (≈ 0.178 µM), an MIC (Pseudomonas aeruginosa) of 0.39 mg/L (≈ 2.78 µM) and an MIC (Staphylococcus aureus [6]) of 0.1 mg/L (≈ 0.713 µM). It also gave an MIC (Staphylococcus aureus [7]) of 0.1 mg/L (≈ 0.713 µM), an MIC (Escherichia coli [8]) of 1.56 mg/L (≈ 11.1 µM) and an MIC (Escherichia coli [9]) of 0.025 mg/L (≈ 0.178 µM). The inhibition at 30 µM (hERG (KCNH2) [10]) was 19%, the inhibition at 100 µM (hERG (KCNH2) [11]) was 36% and the Cmax [19] was 1.28 µg/mL. For the same compound, the AUC(0-t) at 8 h [20] was 4.76 µg·h/mL.
Work on `COc1c(N2C[C@@H]3CCCN[C@@H]3C2)c(F)cc2c(=O)c(C(=O)O)cn(C3CC3)c12.Cl.O` [MOXIFLOXACIN HYDROCHLORIDE HYDRATE] yielded an AUC(0-t) at 24 h [14] of 6.63 µg·h/mL and an AUC(0-t) at 8 h [21] of 10.9 µg·h/mL.
With `O=C(O)c1cn(C2CC2)c2cc(N3CCNCC3)c(F)cc2c1=O` [CIPROFLOXACIN] the Activity (Mus musculus [22]) was “Non-Toxic”, the Activity (Mus musculus [23]) was “Toxic” and the Activity (Mus musculus [24]) was “Toxic”. For the same compound, the Activity (Mus musculus [25]) was “Toxic”, the Activity (Mus musculus [26]) was “Non-Toxic” and the Activity (Mus musculus [27]) was “Toxic”. The Activity (Mus musculus [28]) was “Toxic” and the Activity (Mus musculus [29]) was “Toxic”.
